Laboratory results: patent US12054447B2, “PCNA inhibitors” (City of Hope, priority 2015, dated 2024)

How the values were obtained:
Type in all cases: cell-based
[1] = test system: SK-N-AS; test: Cell growth, CellTitor-Glo assay, 72 h; details: Homo sapiens
Experimental: (§1) The human NB cell lines, SK-N-DZ, SK-N-BE(2)c, SK-N-AS, and LAN-5 obtained from the American Type Culture Collection (Rockville, MD), were cultured in DMEM with 10% fetal bovine serum (FBS), 100 units/ml penicillin, and 100 μg/ml streptomycin in the presence of 5% CO2 at 37° C. Human PBMCs from a healthy donor were purchased from Sanguine BioSciences (Valencia, CA) and grown in RPMI1640 with 10% FBS, 100 units/ml penicillin, 100 μg/ml streptomycin, and 10 ng/ml IL-2 in the presence of 5% CO2 at 37° C. Human embryonic progenitor cell line 7SM0032 was acquired from Millipore (Billerica, MA) and grown in the hEPM-1 Media Kit purchased from the same company. The plasmid pCBASce expresses the rare cutting I-SceI meganuclease. The U20S-derived cell lines, DR-GFP and EJ5-GFP, each contain a stably transfected reporter gene for DSB repair mediated by HR and end joining (EJ), respectively. These cell lines were cultured in DMEM medium with 10% FBS at 37° C. in the presence of 5% CO2.
(§2) To measure the effect of the compounds on cell growth, cells were seeded at 3×10^4/ml into a 96-well plate. Once attached, cells were treated with various concentrations of AOH1160 for 72 h. Cell growth was measured by the CellTitor-Glo assay (Promega, Madison, WI) according to the manufacturer's instructions. To measure apoptosis, cells were seeded at 1×10^5/ml onto a chamber slide. Once attached, cells were treated with the 500 nM AOH1160 for 24 h. Cells were fixed and analyzed by a TUNEL assay using the TMR red in situ cell death detection kit (Roche Diagnostics, Indianapolis, IN).

[2] = test system: SK-N-BE(2)c; test: Cell growth, CellTitor-Glo assay, 72 h; details: Homo sapiens
Experimental: as §1, §2

[3] = test system: SK-N-DZ; test: Cell growth, CellTitor-Glo assay, 72 h; details: Homo sapiens
Experimental: as §1, §2

[4] = test system: UACC-62; test: NCI-60 panel test; details: Homo sapiens; UACC-62, NCI-60 5-dose study
Experimental: (§3) FIG. 7. NCI-60 panel test. The effect of AOH1160 on growth of the NCI-60 panel, which consists of 60 cancer cell lines representing 9 major cancer types, was tested in a 5-dose study. Shown are the Log IC50 values determined for each cell line. […] This study was performed by the National Institute of Cancer.
(§4) As observed in FIG. 7, the effect of AOH1160 on growth of the NCI-60 panel, which consists of 60 cancer cell lines representing 9 major cancer types, was tested in a 5-dose study. Shown are the Log IC50 values determined for each cell line.

[5] = test system: MDA-MB-435; test: NCI-60 panel test; details: Homo sapiens; MDA-MB-435, NCI-60 5-dose study
Experimental: as §3, §4

[6] = test system: NCI-H23; test: NCI-60 panel test; details: Homo sapiens; NCI-H23, NCI-60 5-dose study
Experimental: as §3, §4

[7] = test system: SK-MEL-5; test: NCI-60 panel test; details: Homo sapiens; SK-MEL-5, NCI-60 5-dose study
Experimental: as §3, §4

[8] = test system: M14; test: NCI-60 panel test; details: Homo sapiens; M14, NCI-60 5-dose study
Experimental: as §3, §4

[9] = test system: MDA-MB-231/ATCC; test: NCI-60 panel test; details: Homo sapiens, NCI-60 5-dose study
Experimental: as §3, §4

[10] = test system: HS 578T; test: NCI-60 panel test; details: Homo sapiens, NCI-60 5-dose study
Experimental: as §3, §4

[11] = test system: SF-539; test: NCI-60 panel test; details: Homo sapiens; SF-539, NCI-60 5-dose study
Experimental: as §3, §4

[12] = test system: SK-MEL-28; test: NCI-60 panel test; details: Homo sapiens; SK-MEL-28, NCI-60 5-dose study
Experimental: as §3, §4

[13] = test system: U251; test: NCI-60 panel test; details: Homo sapiens, U-251; U251, NCI-60 5-dose study
Experimental: as §3, §4

[14] = test system: SF-295; test: NCI-60 panel test; details: Homo sapiens; SF-295, NCI-60 5-dose study
Experimental: as §3, §4

[15] = test system: RXF 393; test: NCI-60 panel test; details: Homo sapiens; RXF 393, NCI-60 5-dose study
Experimental: as §3, §4

[16] = test system: OVCAR-5; test: NCI-60 panel test; details: Homo sapiens; OVCAR-5, NCI-60 5-dose study
Experimental: as §3, §4

[17] = test system: EKVX; test: NCI-60 panel test; details: Homo sapiens, NCI-60 5-dose study
Experimental: as §3, §4

[18] = test system: DU-145; test: NCI-60 panel test; details: Homo sapiens; DU-145, NCI-60 5-dose study
Experimental: as §3, §4

[19] = test system: IGROV1; test: NCI-60 panel test; details: Homo sapiens, IGROV-1; IGROV1, NCI-60 5-dose study
Experimental: as §3, §4

[20] = test system: HL-60(TB); test: NCI-60 panel test; details: Homo sapiens, NCI-60 5-dose study
Experimental: as §3, §4

[21] = test system: NCI-H460; test: NCI-60 panel test; details: Homo sapiens; NCI-H460, NCI-60 5-dose study
Experimental: as §3, §4

[22] = test system: MALME-3M; test: NCI-60 panel test; details: Homo sapiens, NCI-60 5-dose study
Experimental: as §3, §4

[23] = test system: SK-OV-3; test: NCI-60 panel test; details: Homo sapiens; SK-OV-3, NCI-60 5-dose study
Experimental: as §3, §4

[24] = test system: PC-3; test: NCI-60 panel test; details: Homo sapiens; PC-3, NCI-60 5-dose study
Experimental: as §3, §4

[25] = test system: OVCAR-8; test: NCI-60 panel test; details: Homo sapiens; OVCAR-8, NCI-60 5-dose study
Experimental: as §3, §4

[26] = test system: COLO 205; test: NCI-60 panel test; details: Homo sapiens
Experimental: as §3, §4

[27] = test system: LOX IMVI; test: NCI-60 panel test; details: Homo sapiens, NCI-60 5-dose study
Experimental: as §3, §4

[28] = test system: A498; test: NCI-60 panel test; details: Homo sapiens; A498, NCI-60 5-dose study
Experimental: as §3, §4

[29] = test system: SNB-75; test: NCI-60 panel test; details: Homo sapiens; SNB-75, NCI-60 5-dose study
Experimental: as §3, §4

| Compound | IC50 [1] [nM] | IC50 [2] [nM] | IC50 [3] [nM] | GI50 [4] [nM] | GI50 [5] [nM] | GI50 [6] [nM] | GI50 [7] [nM] | GI50 [8] [nM] | GI50 [9] [nM] | GI50 [10] [nM] | GI50 [11] [nM] | GI50 [12] [nM] | GI50 [13] [nM] | GI50 [14] [nM] | GI50 [15] [nM] | GI50 [16] [nM] | GI50 [17] [nM] | GI50 [18] [nM] | GI50 [19] [nM] | GI50 [20] [nM] | other results |
| --- | --- | --- | --- | --- | --- | --- | --- | --- | --- | --- | --- | --- | --- | --- | --- | --- | --- | --- | --- | --- | --- |
| COc1ccc(Oc2ccccc2NC(=O)CNC(=O)c2cccc3ccccc23)cc1 [PCNA6] | 91 | 234 | 271 | 562 | 83.2 | 1290 | 25100 | 550 | 2240 | 1700 | 575 | 380 | 1050 | 398 | 490 | 2000 | 1380 | 1020 | 1580 | 617 | GI50 [21]: 851 nM; GI50 [22]: 25100 nM; GI50 [23]: 1020 nM; GI50 [24]: 1050 nM; GI50 [25]: 1150 nM; GI50 [26]: 646 nM; GI50 [27]: 1350 nM; GI50 [28]: 562 nM |
| COc1cccc(Oc2ccccc2NC(=O)CNC(=O)c2cccc3ccccc23)c1 [PCNA7/ AOH1996] | 125 | 236 | 288 | 209 | 70.8 | 741 | 219 | 158 | 776 | 380 | 224 | 4370 | 240 | 112 | 166 | 1120 | 1290 | 708 | 1050 | 81.3 | GI50 [29]: 129 nM; GI50 [21]: 295 nM; GI50 [22]: 17000 nM; GI50 [23]: 490 nM; GI50 [24]: 282 nM; GI50 [25]: 692 nM; GI50 [26]: 282 nM; GI50 [27]: 269 nM; GI50 [28]: 115 nM |
| O=C(CNC(=O)c1cccc2ccccc12)Nc1ccccc1Oc1ccc(O)cc1 [PCNA1] | 157 | 490 | 467 | 1170 | 162 | 2140 | 25100 | 692 | 3160 | 1350 | 692 | 851 | 1410 | 617 | 501 | 6310 | 1170 | 1150 | 2340 | 708 | GI50 [29]: 589 nM; GI50 [21]: 977 nM; GI50 [23]: 1580 nM; GI50 [24]: 1320 nM; GI50 [25]: 1320 nM; GI50 [26]: 794 nM; GI50 [27]: 1740 nM; GI50 [28]: 1020 nM |
| O=C(CNC(=O)c1cccc2ccccc12)Nc1ccccc1Oc1ccccc1 [AOH1160] | 108 | 326 | 238 | 178 | 42.7 | 661 | 263 | 275 | 977 | 363 | 240 | 813 | 331 | 251 | 186 | 525 | 776 | 324 | 912 | 269 | GI50 [29]: 229 nM; GI50 [21]: 331 nM; GI50 [22]: 10000 nM; GI50 [23]: 398 nM; GI50 [24]: 302 nM; GI50 [25]: 316 nM; GI50 [26]: 309 nM; GI50 [27]: 309 nM; GI50 [28]: 257 nM |
| O=C(CNC(=O)c1cccc2ccccc12)Nc1ccccc1Oc1cccc(O)c1 [PCNA2] | 192 | 485 | 539 | 1620 | 759 | 15800 | 25100 | 1550 | 17800 | 5750 | 4070 | 1860 | 8320 | 2190 | 4170 | 25100 | 8910 | 9550 | 10000 | 1320 | GI50 [29]: 3310 nM; GI50 [21]: 5750 nM; GI50 [22]: 5890 nM; GI50 [23]: 12900 nM; GI50 [24]: 7080 nM; GI50 [25]: 11500 nM; GI50 [26]: 14800 nM; GI50 [27]: 15100 nM; GI50 [28]: 5130 nM |
